Common to all, as to assay: Large panel kinase profiling
What all share (assay type): biochemical
Common to all, as to conditions: 1 μM test article, 1 mM ATP

One assay deals with BLK (Homo sapiens, UniProt P51451). In short, it runs like this:
(§1)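 At 30° C., kinases turned over a CSox-Sensor peptide substrate with 1 mM ATP while 1 μM test article was present. Progress was followed by kinetic fluorescence readings.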

The next assay deals with T1, CDK18 (Homo sapiens, UniProt Q07002).
T1 construct: AssayQuant Technologies, Inc. (ran the panel)
A digest of the protocol:
as §1

Another assay concerns the target T2, CSNK1E/CK1E (Homo sapiens, UniProt P49674).
T2 construct: AssayQuant Technologies, Inc. (service laboratory)
A digest of the protocol: as §1

A further assay has as its target T3, DAPK1 (Homo sapiens, UniProt P53355).
T3 construct: AssayQuant Technologies, Inc. (service laboratory)
A digest of the protocol:
as §1

In the next assay the target is INSRR (Homo sapiens, UniProt P14616). A digest of the protocol:
as §1

Another assay deals with KIT (Homo sapiens, UniProt P10721). A digest of the protocol: as §1
The target in another assay is MAP3K11 (Homo sapiens, UniProt Q16584). A digest of the protocol: as §1
In another assay the target is T4, MELK (Homo sapiens, UniProt Q14680).
T4 construct: AssayQuant Technologies, Inc. (assay service)
In short, it runs like this: as §1

Another assay addresses T5, NEK1 (Homo sapiens, UniProt Q96PY6).
T5 construct: AssayQuant Technologies, Inc. (assay service)
T5 sequence (Q96PY6 1-1258): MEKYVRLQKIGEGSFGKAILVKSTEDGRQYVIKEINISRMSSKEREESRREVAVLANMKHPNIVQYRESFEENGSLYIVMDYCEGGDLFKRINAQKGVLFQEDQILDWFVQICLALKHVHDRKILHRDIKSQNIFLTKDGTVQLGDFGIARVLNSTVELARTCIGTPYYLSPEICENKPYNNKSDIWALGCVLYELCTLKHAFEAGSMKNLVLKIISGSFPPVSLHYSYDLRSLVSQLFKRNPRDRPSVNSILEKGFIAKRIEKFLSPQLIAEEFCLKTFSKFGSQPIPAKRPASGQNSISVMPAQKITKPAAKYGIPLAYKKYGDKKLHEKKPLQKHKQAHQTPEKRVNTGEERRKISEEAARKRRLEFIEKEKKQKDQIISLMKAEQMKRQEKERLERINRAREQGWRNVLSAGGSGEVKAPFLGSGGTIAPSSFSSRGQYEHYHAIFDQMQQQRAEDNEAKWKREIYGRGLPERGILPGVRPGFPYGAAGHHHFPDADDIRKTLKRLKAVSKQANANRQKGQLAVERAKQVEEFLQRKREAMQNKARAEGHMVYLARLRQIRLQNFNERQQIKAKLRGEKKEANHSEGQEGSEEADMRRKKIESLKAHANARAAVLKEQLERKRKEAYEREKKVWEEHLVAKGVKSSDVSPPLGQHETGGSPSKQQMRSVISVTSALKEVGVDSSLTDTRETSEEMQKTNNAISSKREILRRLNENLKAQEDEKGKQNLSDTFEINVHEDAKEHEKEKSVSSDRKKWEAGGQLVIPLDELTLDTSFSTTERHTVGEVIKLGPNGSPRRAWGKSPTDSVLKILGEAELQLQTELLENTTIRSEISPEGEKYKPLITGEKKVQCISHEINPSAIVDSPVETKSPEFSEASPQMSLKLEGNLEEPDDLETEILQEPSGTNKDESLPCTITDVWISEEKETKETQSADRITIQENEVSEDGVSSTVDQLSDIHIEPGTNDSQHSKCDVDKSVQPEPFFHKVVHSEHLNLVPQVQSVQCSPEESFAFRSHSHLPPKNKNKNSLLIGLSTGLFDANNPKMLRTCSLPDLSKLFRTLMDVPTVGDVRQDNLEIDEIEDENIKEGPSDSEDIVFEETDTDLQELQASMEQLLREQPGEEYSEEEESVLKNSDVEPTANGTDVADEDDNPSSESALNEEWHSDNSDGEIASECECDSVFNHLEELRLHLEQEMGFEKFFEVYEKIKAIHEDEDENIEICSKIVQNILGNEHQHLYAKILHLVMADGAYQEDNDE
In short, it runs like this: as §1

The target in a further assay is T6, NEK3 (Homo sapiens, UniProt P51956).
T6 construct: AssayQuant Technologies, Inc. (assay service)
T6 sequence (P51956 1-506): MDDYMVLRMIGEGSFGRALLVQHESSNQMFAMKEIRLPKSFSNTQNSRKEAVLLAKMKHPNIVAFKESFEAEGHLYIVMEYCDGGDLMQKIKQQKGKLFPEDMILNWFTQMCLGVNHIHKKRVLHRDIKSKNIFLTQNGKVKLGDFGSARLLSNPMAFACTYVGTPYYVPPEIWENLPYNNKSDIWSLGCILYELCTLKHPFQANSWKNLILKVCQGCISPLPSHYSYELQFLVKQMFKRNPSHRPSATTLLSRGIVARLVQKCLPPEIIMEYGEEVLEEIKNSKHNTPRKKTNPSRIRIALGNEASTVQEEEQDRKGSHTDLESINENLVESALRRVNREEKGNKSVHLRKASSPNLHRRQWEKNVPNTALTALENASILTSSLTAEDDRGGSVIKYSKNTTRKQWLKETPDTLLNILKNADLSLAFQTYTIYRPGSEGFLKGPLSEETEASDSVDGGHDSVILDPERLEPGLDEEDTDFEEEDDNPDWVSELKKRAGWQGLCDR
In short, it runs like this: as §1

A further assay addresses PKN2 (Homo sapiens, UniProt Q16513). In short, it runs like this: as §1
For a further assay, the target named is PRKDC/DNA-PK (Homo sapiens, UniProt P78527). In short, it runs like this:
as §1

For a further assay, the target named is ROS (Homo sapiens, UniProt P08922). A digest of the protocol:
as §1

Chain of INSRR (P14616 27-1297, species assumed): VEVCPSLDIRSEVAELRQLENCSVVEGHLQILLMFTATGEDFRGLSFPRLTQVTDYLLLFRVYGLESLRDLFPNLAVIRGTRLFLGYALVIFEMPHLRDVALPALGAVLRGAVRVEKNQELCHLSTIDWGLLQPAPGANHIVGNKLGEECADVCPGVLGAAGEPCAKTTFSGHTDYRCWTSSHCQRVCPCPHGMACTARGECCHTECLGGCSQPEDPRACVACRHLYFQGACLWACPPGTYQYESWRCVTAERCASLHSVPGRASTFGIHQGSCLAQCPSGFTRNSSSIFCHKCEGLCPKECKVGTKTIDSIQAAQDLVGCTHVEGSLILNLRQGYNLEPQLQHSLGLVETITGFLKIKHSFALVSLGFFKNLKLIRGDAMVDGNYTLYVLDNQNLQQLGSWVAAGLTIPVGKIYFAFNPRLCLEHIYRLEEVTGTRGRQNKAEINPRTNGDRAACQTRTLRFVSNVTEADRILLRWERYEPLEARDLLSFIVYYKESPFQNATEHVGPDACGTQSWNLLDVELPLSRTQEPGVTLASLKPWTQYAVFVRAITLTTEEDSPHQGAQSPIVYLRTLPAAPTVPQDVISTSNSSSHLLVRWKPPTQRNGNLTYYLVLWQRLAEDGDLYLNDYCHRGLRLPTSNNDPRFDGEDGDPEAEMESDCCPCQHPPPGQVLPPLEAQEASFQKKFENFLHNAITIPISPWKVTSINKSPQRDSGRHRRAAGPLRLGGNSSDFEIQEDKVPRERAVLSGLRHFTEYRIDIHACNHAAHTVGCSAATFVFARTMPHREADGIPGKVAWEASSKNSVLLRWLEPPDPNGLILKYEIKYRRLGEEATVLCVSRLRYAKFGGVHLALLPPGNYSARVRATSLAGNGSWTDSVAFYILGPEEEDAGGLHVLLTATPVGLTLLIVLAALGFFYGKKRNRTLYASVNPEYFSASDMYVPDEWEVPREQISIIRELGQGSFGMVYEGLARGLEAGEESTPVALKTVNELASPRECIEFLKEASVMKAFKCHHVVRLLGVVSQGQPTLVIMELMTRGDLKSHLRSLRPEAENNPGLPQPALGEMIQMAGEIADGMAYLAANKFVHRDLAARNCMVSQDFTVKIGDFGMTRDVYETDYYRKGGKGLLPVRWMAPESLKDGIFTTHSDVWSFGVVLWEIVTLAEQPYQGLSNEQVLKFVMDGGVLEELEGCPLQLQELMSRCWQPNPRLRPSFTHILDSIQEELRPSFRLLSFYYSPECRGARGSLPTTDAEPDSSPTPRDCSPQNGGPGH
T3 sequence (P53355 whole entry, species assumed): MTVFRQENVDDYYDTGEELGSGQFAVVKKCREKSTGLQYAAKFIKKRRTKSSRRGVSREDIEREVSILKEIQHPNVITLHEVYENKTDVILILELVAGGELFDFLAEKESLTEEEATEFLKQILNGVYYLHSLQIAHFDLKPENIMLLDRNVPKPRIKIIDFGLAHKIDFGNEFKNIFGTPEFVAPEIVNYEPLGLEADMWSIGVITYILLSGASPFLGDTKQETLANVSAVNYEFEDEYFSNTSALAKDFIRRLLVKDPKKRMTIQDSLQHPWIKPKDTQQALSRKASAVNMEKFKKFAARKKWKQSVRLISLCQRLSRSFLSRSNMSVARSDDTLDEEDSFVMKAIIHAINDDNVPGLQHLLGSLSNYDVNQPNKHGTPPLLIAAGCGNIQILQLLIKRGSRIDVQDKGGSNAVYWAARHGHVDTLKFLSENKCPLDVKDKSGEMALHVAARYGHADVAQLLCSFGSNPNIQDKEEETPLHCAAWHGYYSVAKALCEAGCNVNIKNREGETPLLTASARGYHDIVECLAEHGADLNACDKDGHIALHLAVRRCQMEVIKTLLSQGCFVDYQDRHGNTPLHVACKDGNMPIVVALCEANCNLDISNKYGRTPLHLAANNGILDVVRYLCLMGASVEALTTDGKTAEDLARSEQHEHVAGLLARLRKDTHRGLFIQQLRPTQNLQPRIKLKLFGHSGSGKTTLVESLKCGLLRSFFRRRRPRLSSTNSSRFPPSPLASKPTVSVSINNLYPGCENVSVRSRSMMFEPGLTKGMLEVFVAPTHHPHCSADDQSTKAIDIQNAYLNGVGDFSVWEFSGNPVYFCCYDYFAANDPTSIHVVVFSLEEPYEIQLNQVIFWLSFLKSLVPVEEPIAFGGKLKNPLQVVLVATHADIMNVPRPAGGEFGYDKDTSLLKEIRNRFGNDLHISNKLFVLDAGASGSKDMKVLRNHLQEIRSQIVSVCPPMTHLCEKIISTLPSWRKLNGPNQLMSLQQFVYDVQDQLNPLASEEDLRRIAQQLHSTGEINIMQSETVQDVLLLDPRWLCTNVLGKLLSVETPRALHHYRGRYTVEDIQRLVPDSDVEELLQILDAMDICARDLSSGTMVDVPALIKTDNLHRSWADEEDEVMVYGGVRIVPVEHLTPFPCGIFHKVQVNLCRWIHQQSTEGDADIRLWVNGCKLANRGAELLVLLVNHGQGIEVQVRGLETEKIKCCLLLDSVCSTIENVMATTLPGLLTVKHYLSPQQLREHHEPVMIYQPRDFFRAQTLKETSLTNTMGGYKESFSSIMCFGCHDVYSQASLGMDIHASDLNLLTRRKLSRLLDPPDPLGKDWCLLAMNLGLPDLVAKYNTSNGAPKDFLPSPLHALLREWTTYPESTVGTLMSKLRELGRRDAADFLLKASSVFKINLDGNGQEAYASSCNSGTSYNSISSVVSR
T4 sequence (Q14680 whole entry, species assumed): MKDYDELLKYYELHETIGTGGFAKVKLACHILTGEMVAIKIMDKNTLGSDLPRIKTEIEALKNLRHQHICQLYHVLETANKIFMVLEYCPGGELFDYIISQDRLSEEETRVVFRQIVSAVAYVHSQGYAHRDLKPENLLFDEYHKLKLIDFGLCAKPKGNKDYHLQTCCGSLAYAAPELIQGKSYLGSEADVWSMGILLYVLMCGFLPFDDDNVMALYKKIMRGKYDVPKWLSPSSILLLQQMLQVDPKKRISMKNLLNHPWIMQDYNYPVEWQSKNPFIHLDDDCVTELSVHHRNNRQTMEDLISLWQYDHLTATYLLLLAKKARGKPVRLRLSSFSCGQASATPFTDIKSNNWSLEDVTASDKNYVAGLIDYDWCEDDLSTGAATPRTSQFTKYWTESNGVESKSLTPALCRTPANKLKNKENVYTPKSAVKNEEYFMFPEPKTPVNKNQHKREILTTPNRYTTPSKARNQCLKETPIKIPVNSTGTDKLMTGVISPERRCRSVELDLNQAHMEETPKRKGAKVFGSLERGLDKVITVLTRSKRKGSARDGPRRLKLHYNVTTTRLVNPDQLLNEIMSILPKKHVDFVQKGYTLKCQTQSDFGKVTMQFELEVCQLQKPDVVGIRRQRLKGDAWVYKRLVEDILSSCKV
Chain of KIT (P10721 26-976, species assumed): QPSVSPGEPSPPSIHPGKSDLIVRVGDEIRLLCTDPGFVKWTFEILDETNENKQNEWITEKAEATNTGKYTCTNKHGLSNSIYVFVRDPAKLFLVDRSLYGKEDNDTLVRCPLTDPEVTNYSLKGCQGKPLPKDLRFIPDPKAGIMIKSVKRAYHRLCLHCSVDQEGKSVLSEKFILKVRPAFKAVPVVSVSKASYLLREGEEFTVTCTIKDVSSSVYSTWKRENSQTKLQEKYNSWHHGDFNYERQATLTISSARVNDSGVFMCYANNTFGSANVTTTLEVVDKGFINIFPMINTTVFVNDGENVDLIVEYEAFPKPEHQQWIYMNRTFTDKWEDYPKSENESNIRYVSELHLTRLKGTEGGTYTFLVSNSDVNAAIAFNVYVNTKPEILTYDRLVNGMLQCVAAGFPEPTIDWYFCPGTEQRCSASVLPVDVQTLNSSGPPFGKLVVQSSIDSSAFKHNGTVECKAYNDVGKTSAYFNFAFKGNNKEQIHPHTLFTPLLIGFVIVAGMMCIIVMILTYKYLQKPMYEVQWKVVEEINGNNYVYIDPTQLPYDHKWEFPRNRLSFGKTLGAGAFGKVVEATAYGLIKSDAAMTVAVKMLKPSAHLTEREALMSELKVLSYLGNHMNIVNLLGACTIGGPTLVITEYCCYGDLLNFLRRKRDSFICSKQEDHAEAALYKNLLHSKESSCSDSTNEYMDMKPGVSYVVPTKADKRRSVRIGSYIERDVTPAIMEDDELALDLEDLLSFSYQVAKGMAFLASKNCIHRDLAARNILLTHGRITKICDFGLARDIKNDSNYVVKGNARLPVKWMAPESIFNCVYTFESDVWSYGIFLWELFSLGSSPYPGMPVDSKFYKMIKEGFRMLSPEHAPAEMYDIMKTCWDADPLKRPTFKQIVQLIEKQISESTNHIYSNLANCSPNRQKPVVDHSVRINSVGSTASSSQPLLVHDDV
T2 sequence (P49674 whole entry): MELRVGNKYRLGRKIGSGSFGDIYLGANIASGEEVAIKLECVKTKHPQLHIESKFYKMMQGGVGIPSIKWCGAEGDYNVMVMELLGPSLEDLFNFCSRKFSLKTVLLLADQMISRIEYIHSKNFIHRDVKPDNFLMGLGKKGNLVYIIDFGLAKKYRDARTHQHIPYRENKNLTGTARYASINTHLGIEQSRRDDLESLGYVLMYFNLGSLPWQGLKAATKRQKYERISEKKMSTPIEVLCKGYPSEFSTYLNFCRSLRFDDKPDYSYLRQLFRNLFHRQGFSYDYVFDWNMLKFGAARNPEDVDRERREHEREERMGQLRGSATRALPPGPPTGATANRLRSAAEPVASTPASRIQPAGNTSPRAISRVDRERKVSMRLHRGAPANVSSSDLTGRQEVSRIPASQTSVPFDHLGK

In general, inhibition refers to the relative decrease from the control value, in per cent. Take `C=CC(=O)N1CCCC(c2c(F)cc(C(N)=O)c3[nH]c4c(c23)CCCCC4)C1` (single isomer, unassigned) [Compound 5-6]: the inhibition at 1 µM was 30.3% against BLK; 19% against CDK18; -4.2% against CSNK1E/CK1E; 8.1% against DAPK1; 10.7% at INSRR; 5.5% against KIT. Besides, the inhibition at 1 µM is 16% on MAP3K11; -27.6% on MELK; -3.1% on NEK1; -21.2% against NEK3; 0.7% on PKN2; -40.6% against PRKDC/DNA-PK. Further, the inhibition at 1 µM on ROS was -35.7%.

Take `C=CC(=O)N1CCC[C@@H](c2c(F)cc(C(N)=O)c3[nH]c4c(c23)CC2(CC4)CC2)C1` [Compound 6-2, (S)-5-(1-acryloylpiperidin-3-yl)-6-fluoro-1,2,4,9-tetrahydrospiro[carbazole-3,1′-cyclopropane]-8-carboxamide]: the inhibition at 1 µM on BLK was 65.7%; at CDK18, -15%; at CSNK1E/CK1E, -7.4%; on DAPK1, 22.1%; against INSRR it was -54.1%; against KIT it was 26.9%. The inhibition at 1 µM at MAP3K11 is 17.6%; at MELK it was -14.5%; at NEK1, 7.9%; against NEK3, -8.1%; at PKN2, 16.2%; against PRKDC/DNA-PK, 35%. For the same compound, the inhibition at 1 µM against ROS is -3.6%.

On to `C=CC(=O)N1CCC[C@@H](c2c(F)cc(C(N)=O)c3[nH]c4c(c23)CCC4)C1` [Compound 10-2, (S)-8-(1-acryloylpiperidin-3-yl)-7-fluoro-1,2,3,4-tetrahydrocyclo-penta[b]indole-5-carboxamide], for which the inhibition at 1 µM at BLK was -2.3%; against CDK18 it was 2%; at CSNK1E/CK1E, 15.1%; at DAPK1, -20.3%; against INSRR, -5.7%; on KIT, 20.8%. Moreover, the inhibition at 1 µM at MAP3K11 is -3.2%; against MELK it was 11.1%; on NEK1 it was 11.8%; at NEK3, -5%; on PKN2 it was 7.5%; against PRKDC/DNA-PK it was 14.6%. For the same compound, the inhibition at 1 µM on ROS was -22%.

Values taken from patent publication US20220009920A1 (GB005, Inc., priority 2020, published 2022).
